Experimental data taken from the C3SDB collision cross section collection.
Where “and” joins values, the source holds several entries; their conditions need not be identical. Equal entries are not always repeated.

What was measured:
[1] = instrument: DT, stepped-field
[2] = [M+H]+; instrument: TW; Major Mix IMS/Tof Calibration Kit (Waters)

SMILES	collision cross section (N2) [2]	further results
OCC1OC(OC2C(CO)OC(OC3C(CO)OC(OC4C(CO)OC(OC5C(CO)OC(OC6C(CO)OC(OC7C(CO)OC(OC8C(CO)OC(OC9C(CO)OC(OC%10C(CO)OC(O)C(O)C%10O)C(O)C9O)C(O)C8O)C(O)C7O)C(O)C6O)C(O)C5O)C(O)C4O)C(O)C3O)C(O)C2O)C(O)C(O)C1O (stereo unspecified) [(Hex)10]	–	collision cross section (N2) ([1]; [M+H-H2O]+): 383.4 Å²; collision cross section (N2) ([1]; [M+H]+): 365.1 Å² and 390.3 Å²; collision cross section (N2) ([1]; [M+Na]+): 365.1 Å² and 373.8 Å²
O=C1CN=C(c2ccccc2)c2cc([N+](=O)[O-])ccc2N1 [Nitrazepam]	163.6 Å²	–
COc1ccc2c3c1O[C@H]1[C@@H](O)C=C[C@H]4[C@@H](C2)NCC[C@@]341 [Norcodeine]	166.1 Å²	–
Cc1nccn1CC1CCc2c(c3ccccc3n2C)C1=O (stereo unspecified) [Ondansetron]	171.7 Å²	–
C=CCOc1ccccc1OCC(O)CNC(C)C (stereo unspecified) [Oxprenolol]	161.7 Å²	–
CN1CC[C@]23c4c5ccc(O)c4O[C@H]2C(=O)CC[C@@]3(O)[C@H]1C5 [Oxymorphone]	164.6 Å²	–
CC(=O)Nc1ccc(O)cc1 [Paracetamol]	132.2 Å²	–
CCCN1C[C@H](CSC)C[C@@H]2c3cccc4[nH]cc(c34)C[C@H]21 [Pergolide]	177.9 Å²	–
CCOC(=O)C1(c2ccccc2)CCN(C)CC1 [Pethidine]	158.5 Å²	–
CC(C)NCC(O)COc1cccc2[nH]ccc12 (stereo unspecified) [Pindolol]	159.1 Å²	–
NC(=O)C1(N2CCCCC2)CCN(CCCC(=O)c2ccc(F)cc2)CC1 [Pipamperone]	194.1 Å²	–
CN1CCC(=C2c3ccccc3CCc3sccc32)CC1 [Pizotifen]	175.4 Å²	–
CC(CN1c2ccccc2Sc2ccccc21)N(C)C (stereo unspecified) [Promethazine]	163.7 Å²	–
CC(C)NCC(O)COc1cccc2ccccc12 (stereo unspecified) [Propranolol]	162.7 Å²	–
Fc1ccccc1C1=NCC(=S)N(CC(F)(F)F)c2ccc(Cl)cc21 [Quazepam]	174.9 Å²	–
OCCOCCN1CCN(C2=Nc3ccccc3Sc3ccccc32)CC1 [Quetiapine]	192.9 Å²	–
CCOc1ccccc1O[C@H](c1ccccc1)[C@H]1CNCCO1 [Reboxetine]	174 Å²	–
Cc1nc2n(c(=O)c1CCN1CCC(c3noc4cc(F)ccc34)CC1)CCCC2O (stereo unspecified) [Risperidone-M 9-hydroxy]	209.9 Å²	–
O=C(O)C(c1ccccc1)C1CCCCN1 (stereo unspecified) [Ritalinic acid]	150 Å²	–
CN(C)CCc1c[nH]c2ccc(Cn3cncn3)cc12 [Rizatriptan]	160.3 Å²	–
CCCN(CCC)CCc1cccc2c1CC(=O)N2 [Ropinirole]	163.8 Å²	–
NC(=O)c1cn(Cc2c(F)cccc2F)nn1 [Rufinamide]	148.6 Å²	–
O=C1NCCN1CCN1CCC(c2cn(-c3ccc(F)cc3)c3ccc(Cl)cc23)CC1 [Sertindol]	215.9 Å²	–
CC(C)CC(N(C)C)C1(c2ccc(Cl)cc2)CCC1 (stereo unspecified) [Sibutramine]	168 Å²	–
CCCc1nn(C)c2c(=O)[nH]c(-c3cc(S(=O)(=O)N4CCN(C)CC4)ccc3OCC)nc12 [Sildenafil]	212.7 Å²	–
COc1ncnc(NS(=O)(=O)c2ccc(N)cc2)c1OC [Sulfadoxine]	165.3 Å²	–
Nc1ccc(S(=O)(=O)Nc2ccccn2)cc1 [Sulfapyridine]	150.8 Å²	–

SMILES	collision cross section (N2) [2]	further results
CN1CC(=O)N2[C@H](c3ccc4c(c3)OCO4)c3[nH]c4ccccc4c3C[C@@H]2C1=O [Tadalafil]	189.4 Å²	–
CC/C(=C(\c1ccccc1)c1ccc(OCCN(C)C)cc1)c1ccccc1 [Tamoxifen]	197.1 Å²	–
CN1C(=O)C(O)N=C(c2ccccc2)c2cc(Cl)ccc21 (stereo unspecified) [Temazepam]	166.1 Å²	–
CN1C(C(=O)Nc2ccccn2)=C(O)c2sccc2S1(=O)=O [Tenoxicam]	170.4 Å²	–
CC(C)(C)NCC(O)c1cc(O)cc(O)c1 (stereo unspecified) [Terbutaline]	154.9 Å²	–
COc1cc2c(cc1OC)C1CC(=O)C(CC(C)C)CN1CC2 (stereo unspecified) [Tetrabenazine]	182.6 Å²	–
COc1ccc2c3c1O[C@H]1C(OC(C)=O)=CC[C@H]4[C@@H](C2)N(C)CC[C@]314 [Thebacon]	178.2 Å²	–
Clc1ccc2nsnc2c1NC1=NCCN1 [Tizanidine]	149.4 Å²	–
CCCCNC(=O)NS(=O)(=O)c1ccc(C)cc1 [Tolbutamide]	163 Å²	–
Cc1ccc(O)c([C@H](CCN(C(C)C)C(C)C)c2ccccc2)c1 [Tolterodine]	182.1 Å²	–
CN(C)CC1CCCCC1(O)c1cccc(O)c1 (stereo unspecified) [Tramadol-M O-desmethyl]	157.4 Å²	–
COc1cccc([C@@]2(O)CCCC[C@@H]2CN(C)C)c1 [Tramadol]	161.4 Å²	–
CCOC(=O)[C@H](CCc1ccccc1)N[C@@H](C)C(=O)N1[C@H](C(=O)O)C[C@H]2CCCC[C@@H]21 [Trandolapril]	203.5 Å²	–
NC1CC1c1ccccc1 (stereo unspecified) [Tranylcypromine]	127.6 Å²	–
Cc1nnc2n1-c1ccc(Cl)cc1C(c1ccccc1Cl)=NC2 [Triazolam]	172.4 Å²	–
CC(C)(C)NCC(O)c1ccccc1Cl (stereo unspecified) [Tulobuterol]	150.5 Å²	–
CCCc1nc(C)c2c(=O)nc(-c3cc(S(=O)(=O)N4CCN(CC)CC4)ccc3OCC)[nH]n12 [Vardenafil]	225.8 Å²	–
COc1ccc(C(CN(C)C)C2(O)CCCCC2)cc1 (stereo unspecified) [Venlafaxine]	171.6 Å²	–
COc1ccc(CCN(C)CCCC(C#N)(c2ccc(OC)c(OC)c2)C(C)C)cc1OC (stereo unspecified) [Verapamil]	210.2 Å²	–
CC(=O)CC(c1ccccc1)c1c(O)c2ccccc2oc1=O (stereo unspecified) [Warfarin]	166.8 Å²	–
CCN(C(C)=O)c1cccc(-c2ccnc3c(C#N)cnn23)c1 [Zaleplon]	173.5 Å²	–
Cc1nn(C)c2c1C(c1ccccc1F)=NCC(=O)N2C [Zolazepam]	162.3 Å²	–
CN(C)CCc1c[nH]c2ccc(C[C@H]3COC(=O)N3)cc12 [Zolmitriptan]	160.6 Å²	–
Cc1ccc(-c2nc3ccc(C(=O)O)cn3c2CC(=O)N(C)C)cc1 [Zolpidem-M 2]	181.4 Å²	–
Cc1ccc(-c2nc3ccc(C)cn3c2CC(=O)N(C)C)cc1 [Zolpidem]	177.2 Å²	–
OCCN1CCN(CC/C=C2/c3ccccc3Sc3ccc(Cl)cc32)CC1 [Zuclopenthixol]	194 Å²	–
Clc1cccc(N2CCNCC2)c1 [mCPP]	144.3 Å²	–
